# Assay results from patent US7879914B2, “Methods for treating viral infections using polyamine analogs” (Pathlogica LLC, priority 2005, dated 2011).
# How the values were obtained:
# [1] = tested on: CD14/CD16+ blood macrophages from normal (uninfected) patients; assay: Susceptibility assay: killing of CD14/CD16+ blood macrophages from normal patients; type: cell-based, human; settings: FIG. 4, ex vivo
# Experimental: The following procedures/protocols were used in some of the examples that follow. All steps were performed in a biological safety cabinet using Universal Precautions for handling human blood samples and standard aseptic techniques.
# The PBMC for the susceptibility assays was prepared in accordance with the following procedures. A cell culture medium was prepared by mixing RPMI+10% FBS+1% sodium pyruvate and filter sterilized using a filter unit with 0.22 micron pore size. The cell pellet was then resuspended in 3 ml of the cell culture medium. The suspension was gently mixed by slowly pipetting up and down 3 times. The cells were counted using a hemacytometer and the cell density was adjusted to 1×10^6 cells/mL in the cell culture medium, followed by mixing by slowly pipetting up and down 3 times. The cells were incubated in a 50 mL sterile polypropylene tube, at 37° C. and 5% CO2 for 1-2 days. […]
# Fluorescence emission measurements were obtained with a flow cytometer, using the following instrument settings in BD FACSCAN: 1) Detector: FL1=533 amps; FL2=570 amps; and FL3=550 amps; 2) Threshold=FSC 180; 3) Compensation: FL1 10.5% FL2; FL2 26.1% FL1; FL2 8.3% FL3; FL3 25.4% FL2; 4) Count=50,000 UNgated events.
# The ability of polyamine analogs MGBG and CG47 to kill CD14/CD16+ blood macrophages in HIV infected and normal patients was measured. […]
# [2] = tested on: HIV proviral DNA; assay: HIV proviral load after exposure of mononuclear cells in culture (Example 7); type: cell-based
# Experimental: Mononuclear cells from HIV infected individuals were isolated and exposed to PA-001 in culture under non-adherent conditions for five days. The cells were then separated into CD3+ and CD14+ fractions via antibody-coated magnetic beads using a Miltenyi apparatus. The “-/-” samples represent flow thru after CD3+ and CD14+ cells were removed. Genomic DNA was prepared and then amplified with HIV specific primers and primers homologous to the single copy gene cJun. Results with HIV specific primers were normalized to those obtained with cJun. The number of HIV DNA copies per cellular DNA equivalent after exposure of mononuclear cell cultures from HIV infected individuals to PA-001 under non-adherent conditions for five days is shown in FIG. 7. Results with HIV specific primers were normalized to those obtained with cJun. Each bar represents the mean of three separate determinations. The error bar indicates one standard deviation from the mean. The numbers under the sample designations indicate the % of CD16+ monocytes killed by PA-001. ND=not done.
# [3] = tested on: SIVmac251; assay: SIVmac251-infected, CD8-depleted rhesus macaques, escalating doses; type: in vivo, rhesus macaque
# Experimental: For these experiments, rhesus macaques were infected with SIVmac251 and depleted of CD8+ T lymphocytes by administration of a humanized CD8-depleting antibody. […] These monkeys were then treated with escalating doses of MGBG.
# The animals were treated with MGBG (PA-001) beginning five days post infection (p.i.) with 200 mg/m^2 PA-001, and then treated 7 and 14 days later with 300 mg/m^2 and 400 mg/m^2, respectively of PA-001.
# Rhesus macaques similar to those described in Example 9 were used for these studies. An SIVmac251-infected, CD8-depleted monkey was treated with PA-001 (MGBG) beginning five days p.i. with 200 mg/m^2 PA-001, and then treated 7 and 14 days later with 300 mg/m^2 and 400 mg/m^2, respectively of PA-001. A control monkey was SIVmac251-infected and CD8-depleted, but not treated with PA-001. Blood macrophages from control and treated monkeys were sorted every week into three subsets: CD14+/16−, CD14+/16+ and CD14−/16+ where CD14− indicates a low level of CD14 expression. Quantitative SIV PCR analysis of the sorted subsets was subsequently performed.
# [4] = tested on: CD14+ CD16+ monocytes; assay: In vitro killing of cultured rhesus macaque monocytes; type: cell-based
# Experimental: Dose response experiments with MGBG were performed to assess its ability to kill CD14+ CD16+ monocytes in nonadherent PBMC cultures.
# [5] = patients, Int. J. Cancer 26, 571 (1980); cited from earlier work
compound,measurement,setting,value
"CCNCCCNC/C=C\CNCCCNCC.Cl.Cl.Cl.Cl [CG47, N,N′-bis(3-ethylaminopropyl)-cis-but-2-ene-1,4-diamine tetrahydrochloride]",sensitivity of CD14/CD16+ macrophages from the normal patient,[1],essentially unaffected
CC(/C=N/NC(=N)N)=N\NC(=N)N [MGBG],HIV proviral load in cells that neither bound to CD14 or CD3 antibodies,[2]; FIG. 7B,effective in reducing
same,yield of HIV DNA in T cells,"[2]; five days, CD3+ fraction",generally decreased slightly
same,HIV proviral load in CD14+ cells,"[2]; five days, non-adherent conditions",significant decreases
same,levels of CD14+CD16+ monocytes in blood,"[3]; 200, 300, 400 mg/m^2 from five days p.i., by day 21 p.i.",depleted below detectable levels
same,perivascular cuffs and virus in the CNS,"[3]; 21 days p.i., preliminary histopathological analysis",did not have perivascular cuffs or detectable virus
same,SIV DNA in sorted blood macrophage subsets,"[3]; after the first and second dose, quantitative SIV PCR",no longer had any detectable SIV DNA
same,decrease in Mac387 stained monocyte/macrophage cell number in lymph node,[3]; compared to untreated animals,50-80%
same,plasma virus versus control,[3]; treated animals vs untreated control,did not show significant differences
same,activated monocytes killed,"[4]; 10 μM, five-day assay, monkey n=4",80%
same,"decrease of CD14+ CD16+ monocytes, dose dependence","[4]; nonadherent PBMC cultures, five days",dose-dependent decrease
same,toxicity in an anti-cancer regimen,[5],unacceptably toxic
